Experimental findings from ChEMBL document CHEMBL1201862, “PubChem BioAssay data set” (2004) are described below.

What all share (experiment): DTP human tumour cell line panel, 48 h
The subject of assay [1] is UACC-257.
For assay [2], the system named is BT-549.
The subject of assay [3] is 786-0.
Assay [4] deals with A549.
Assay [5] concerns OVCAR-3.
Assay [6] deals with SNB-75.
Assay [7] deals with TK-10.
The subject of assay [8] is SNB-19.
Assay [9] concerns EKVX.
The subject of assay [10] is HT-29.
Assay [11] has as its system MDA-N.
Assay [12] deals with NCI/ADR-RES.
Assay [13] relates to MOLT-4.
Assay [14] concerns OVCAR-4.
In assay [15] the test system is OVCAR-8.
The test system of assay [16] is NCI-H23.
Assay [17] relates to SK-MEL-2.
Assay [18] has as its system SW-620.
The subject of assay [19] is HOP-92.
Assay [20] deals with RPMI-8226.

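Each compound was tested at five concentrations against cells in 96-well plates for 48 hours. At the GI50, growth is halved.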 Calls of active or inactive are those of the source. Rule as the data show it: active = GI50 up to about 1.1 µM and inactive = higher. A value given as a limit tells only on which side of the number the result lay.

One may read the GI50 as the concentration at which growth is held to half of that of the control.

For `Sc1nnc(CCCCCCCCc2nnc(S)o2)o1`, the GI50 in assay [1], in assay [2], in [3], in assay [4], in assay [5] and in assay [6] was > 100 µM (inactive) each time. The GI50 in [7], in assay [8], in assay [9], in [10], in assay [11] and in assay [12] was > 100 µM (inactive) throughout. Further, the GI50 in [13], in [14], in assay [15], in [16], in [17] and in assay [18] was > 100 µM (inactive) each time.
In the case of `Cc1ccc(C)c(COCCOCn2cc(Br)c(N)nc2=O)c1`, the GI50 in [1], in assay [19], in assay [2], in assay [3], in [4] and in assay [5] was > 100 µM (inactive) throughout. The GI50 in assay [6], in assay [7], in assay [8], in [9], in assay [11] and in assay [12] was > 100 µM (inactive) in each case. Also, the GI50 in assay [13], in assay [15], in assay [16], in assay [17] and in [18] was > 100 µM (inactive) throughout.
On to `O=C(Nc1ccc(Cl)c(Cl)c1)C(=O)C(C1OC(=O)c2ccccc21)[N+](=O)[O-]` (centres undefined), for which the GI50 is > 100 µM (inactive) in [1]; 81.7 µM (inactive) in assay [19]; > 100 µM (inactive) in [2]; > 100 µM (inactive) in assay [3]; > 100 µM (inactive) in [4]; > 100 µM (inactive) in assay [5]. Besides, the GI50 in [6], in [7], in [8], in assay [9], in assay [10] and in assay [11] was > 100 µM (inactive) in each case. Moreover, the GI50 in assay [12], in assay [13], in assay [14], in [15], in [16] and in assay [17] was > 100 µM (inactive) each time. Further, in [18], the GI50 is > 100 µM (inactive).
With `O=c1[nH]nc(Cc2ccccc2)n1/N=C/c1ccc(/C=N/n2c(Cc3ccccc3)n[nH]c2=O)cc1`, the GI50 in assay [1], in [20], in [2], in assay [3], in assay [4] and in assay [5] was > 100 µM (inactive) each time. In addition, the GI50 was 54 µM (inactive) in assay [7]; > 100 µM (inactive) in [8]; > 100 µM (inactive) in assay [9]; > 100 µM (inactive) in assay [10]; > 100 µM (inactive) in assay [11]; > 100 µM (inactive) in assay [12]. For the same compound, the GI50 in assay [13] was 19.4 µM (inactive); in assay [14], > 100 µM (inactive); in [15], > 100 µM (inactive); in assay [16], > 100 µM (inactive); in [17] it was > 100 µM (inactive); in assay [18], > 100 µM (inactive).
`O=C1CC(c2ccco2)C2(C(=O)NC(=O)NC2=O)C(c2ccco2)C1` (centres undefined): the GI50 in assay [1], in [20], in assay [2], in [3], in assay [4] and in assay [5] was > 75 µM (inactive) each time. The GI50 in assay [6], in assay [7], in assay [8], in [9], in assay [10] and in [11] was > 75 µM (inactive) throughout. Moreover, the GI50 in [12], in assay [13], in assay [14], in [15], in assay [16] and in assay [17] was > 75 µM (inactive) in each case. In addition, the GI50 in assay [18] is > 75 µM (inactive).
On to `COc1cc(Cn2c3c(c4cc(O)ccc42)Cc2ccccc2C3=O)cc(OC)c1`, for which the GI50 in [1] is > 100 µM (inactive); in [20], 5.62 µM (inactive); in assay [2], > 100 µM (inactive); in assay [3], 58.3 µM (inactive); in assay [4], 74 µM (inactive); in [5] it was > 100 µM (inactive). The GI50 in assay [6] is 15.5 µM (inactive); in assay [7], > 100 µM (inactive); in assay [8], > 100 µM (inactive); in assay [10] it was 37.1 µM (inactive); in assay [11], 12 µM (inactive); in [12], 21.3 µM (inactive). Further, the GI50 in assay [13] is 28.9 µM (inactive); in [14] it was 19.9 µM (inactive); in [15] it was 59.6 µM (inactive); in [16], > 100 µM (inactive); in [17], > 100 µM (inactive); in [18] it was 54.5 µM (inactive).
In the case of `O=c1[nH]nc(-c2ccc3ccccc3c2)[nH]1`, the GI50 in [1], in assay [20], in assay [2], in assay [3], in assay [4] and in assay [5] was > 100 µM (inactive) throughout. The GI50 in assay [6] is 22.9 µM (inactive); in [7], > 100 µM (inactive); in assay [8], > 100 µM (inactive); in [9] it was 0.282 µM (active); in assay [10], > 100 µM (inactive); in assay [11], > 100 µM (inactive). The GI50 in assay [12], in assay [13], in [14], in [15], in assay [16] and in [17] was > 100 µM (inactive) in each case. In addition, the GI50 in assay [18] was > 100 µM (inactive).
For `O=C(c1ccccc1)N1N=C(C(F)(F)F)CC1(O)C(F)(F)F` (centres undefined), the GI50 in assay [1], in assay [20], in assay [2], in assay [3], in [4] and in [5] was > 100 µM (inactive) each time. Besides, the GI50 in assay [6], in assay [7], in [8], in [9], in assay [10] and in [11] was > 100 µM (inactive) each time. For the same compound, the GI50 in assay [12], in assay [13], in assay [14], in assay [15], in assay [16] and in assay [17] was > 100 µM (inactive) each time. Also, the GI50 in assay [18] is > 100 µM (inactive).
As for `Cc1ccccc1NC(=O)/C(C#N)=N\Nc1[nH]cnc1C(N)=O`, the GI50 in assay [1] was 15.2 µM (inactive); in [20], 1.83 µM (inactive); in assay [2], > 100 µM (inactive); in [3], 19.3 µM (inactive); in [4], > 100 µM (inactive); in assay [5], 2.42 µM (inactive). In addition, the GI50 in [6] was 54.5 µM (inactive); in [7], 3.08 µM (inactive); in [8] it was > 100 µM (inactive); in assay [9], 66.8 µM (inactive); in assay [10] it was 38.6 µM (inactive); in assay [11], 12.9 µM (inactive). Besides, the GI50 in [12] is 2.45 µM (inactive); in assay [13], 2.88 µM (inactive); in [14] it was 34.1 µM (inactive); in assay [15] it was 1.51 µM (inactive); in assay [16], 32.6 µM (inactive); in assay [17], 1.18 µM (inactive). The GI50 in assay [18] was 2.89 µM (inactive).
`O=c1cn[nH]c(=S)n1/N=C/c1c[nH]c2ccccc12`: the GI50 in [1] was 63 µM (inactive); in assay [20] it was 49.5 µM (inactive); in assay [2] it was 72.6 µM (inactive); in [3], > 100 µM (inactive); in assay [4] it was > 100 µM (inactive); in [5] it was > 100 µM (inactive). In addition, the GI50 in assay [8] was > 100 µM (inactive); in assay [9], > 100 µM (inactive); in [10], > 100 µM (inactive); in assay [11] it was 87.1 µM (inactive); in assay [12], > 100 µM (inactive); in assay [13] it was 37.6 µM (inactive). Besides, the GI50 in assay [14] is 88.1 µM (inactive); in assay [15], 32.8 µM (inactive); in assay [17] it was > 100 µM (inactive); in assay [18], 45.3 µM (inactive).
For the compound `CC(=O)Nc1ccc2c(C)c3c4ccccc4n(C)c3nc2n1`, the GI50 in assay [1] is 26.9 µM (inactive); in [2] it was 31.3 µM (inactive); in assay [3] it was 8.17 µM (inactive); in assay [4], 16 µM (inactive); in [5], 26.1 µM (inactive); in [6] it was 14.4 µM (inactive). In addition, the GI50 in assay [7] was 32.9 µM (inactive); in [8] it was 39.1 µM (inactive); in [9] it was 29 µM (inactive); in [10], 14.8 µM (inactive); in [11], 17.1 µM (inactive); in assay [12], 22.3 µM (inactive). In addition, the GI50 in assay [13] was 5.83 µM (inactive); in [15] it was 17.9 µM (inactive); in assay [16] it was 19.3 µM (inactive); in [17] it was 20.6 µM (inactive); in [18] it was 13.2 µM (inactive).
